Results: ChEMBL document CHEMBL1134571, “Photochemical synthesis of N-arylbenzophenanthridine selective estrogen receptor modulators (serms)” (J Med Chem, 2001)
Calls of active or inactive are those of the source. The rule behind the calls is not given here.

Key:
[1] = test system: MCF7; test: Inhibition of 17-beta-estradiol induced MCF-7 cell proliferation;NA=not active; type: functional, cell-based; conditions: Homo sapiens
[2] = test system: MCF7; test: Inhibition of 17-beta-estradiol induced MCF-7 cell proliferation; type: functional, cell-based; conditions: Homo sapiens
[3] = target: Estrogen receptor (Homo sapiens) (UniProt Q92731+P03372); test: Relative binding affinity(RBA) as displacement of [3H]17-beta-estradiol from MCF-7 cell lysate;NA=not active; type: cell-based
[4] = test system: MCF7; test: Inhibition of 17-beta-estradiol induced MCF-7 cell proliferation; NA=not active; type: functional, cell-based; conditions: Homo sapiens

Row | Structure (SMILES) | IC50 [2] [µM] | further results
1 | O=c1c2cc(O)ccc2c2ccc3cc(O)ccc3c2n1-c1ccc(OCCN2CCCCC2)cc1 |  | NA [1]: inactive
2 | COc1ccc2c(ccc3c4ccc(OC)cc4c(=O)n(-c4ccc(OCCN5CCCCC5)cc4)c23)c1 |  | NA [1]: inactive; NA [3]: inactive
3 | COc1ccc2c(c1)CN(c1ccc(OCCN3CCCCC3)cc1)c1c-2ccc2cc(OC)ccc12 | 0.019 | 
4 | C[C@]12CC[C@@H]3c4ccc(O)cc4CC[C@H]3[C@@H]1CC[C@@H]2O |  | NA [4]: inactive

Further lines, with some results ahead:

Row | IC50 [2] [µM] | Structure (SMILES) | further results
5 | 0.001 | Oc1ccc2c(c1)CN(c1ccc(OCCN3CCCCC3)cc1)c1c-2ccc2cc(O)ccc12 | 
6 | 0.287 | COc1ccc2c(c1)CN(c1ccc(OCCN3CCCCC3)cc1)C1=C2CCc2cc(OC)ccc21 | 
7 | 0.128 | O=c1c2cc(O)ccc2c2c(n1-c1ccc(OCCN3CCCCC3)cc1)-c1ccc(O)cc1CC2 | 
